{"source": "paper PMC2882332", "about": "“Species Used for Drug Testing Reveal Different Inhibition Susceptibility for 17beta-Hydroxysteroid Dehydrogenase Type 1” (PLoS ONE, 2010)", "key": {"rat 17β-HSD 1": {"biological_target": "T1, rat 17β-HSD 1 (Rattus norvegicus, UniProt P51657)", "T1 construct": "Full length cDNAs of several 17β-HSDs type 1 originating from different species were cloned; made in house; host or cells: E.coli BL21 DE3 Codon Plus RP", "T1 sequence (P51657 1-344)": "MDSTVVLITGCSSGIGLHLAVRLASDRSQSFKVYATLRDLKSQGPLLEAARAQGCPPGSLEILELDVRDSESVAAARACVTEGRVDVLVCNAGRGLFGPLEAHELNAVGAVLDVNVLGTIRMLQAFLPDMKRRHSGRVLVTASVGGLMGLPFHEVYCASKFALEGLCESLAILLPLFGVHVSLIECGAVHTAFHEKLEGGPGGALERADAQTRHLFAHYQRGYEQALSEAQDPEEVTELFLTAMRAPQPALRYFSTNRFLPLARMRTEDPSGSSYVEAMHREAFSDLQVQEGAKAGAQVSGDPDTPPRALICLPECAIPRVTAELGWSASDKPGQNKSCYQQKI", "experiment": "In vitro enzymatic activity, recombinant rat 17β-HSD 1", "format": "biochemical", "settings": "2 µM compound, 15 nM 3H-estrone, read-out: Observed % inhibition", "text": "(§1) Full length cDNAs of several 17β-HSDs type 1 originating from different species were cloned either into the pQE30 vector (human 17β-HSD 1, coding for acc. no. NP_000404) for expression as His-Tag protein or into a modified pGex-2T vector [63] (mouse 17β-HSD 1, acc. no. NP_034605; rat 17β-HSD 1, acc. no. NP_036983; marmoset 17β-HSD 1, acc. no. AAG01115; porcine 17β-HSD 1, acc. no. NP_001121944) for expression as GST-fusion proteins. The marmoset 17β-HSD 1 enzyme sequence was updated by the missing N-terminal part (AF272013) and the new porcine sequence was submitted to GenBank (NP_001121944). Human 17β-HSDs 2, 4, 5 (AKR1C3, the latter kindly provided by Dr. T. Penning) and 7 were all cloned into the modified pGEX-2T vector. For 17β-HSD 4 only the SDR-domain converting the steroids was subcloned. Plasmids were transformed into E.coli BL21 DE3 Codon Plus RP (Stratagene) and enzyme expression was induced by 0.5 mM IPTG. After 4h incubation at 37°C with continuous shaking bacteria were pelleted by centrifugation at 10.000×g. Pellets were stored until use at −20°C.\n(§2) The bacteria containing recombinant enzymes were resuspended in PBS and enzymatic assays were performed in 100 mM sodium phosphate buffer at pH 6.6 for the reductive reaction and at pH 7.7 for the oxidative reaction. […] All substrates were purchased from NEN/Perkin Elmer. The cofactors NADPH (Sigma; for reductive reactions) and NAD^+ (Serva, for oxidative reactions) were used at final concentrations of 0.5 mg/ml. […] The incubation at 37°C was stopped with 0.21 M ascorbic acid in methanol∶acetic acid 99∶1 (v∶v) after the time needed to convert approximately 30% of the substrate in a control assay with 1% DMSO, without inhibitor candidates. […] The solvent used was acetonitrile∶water (43∶57, v∶v) at a flow rate of 1 ml/min. Radioactivity was detected by online-scintillation counting (Berthold LB506D) after mixing with ReadyFlowIII (Beckman). Conversion was calculated from integration of substrate and product peaks. […] All assays were run in duplicates of two independent experiments and mean values are reported. The IC50 values were determined by the One Ligand Binding model of SigmaPlot kinetics module."}, "[1]": {"test_system": "17β-HSD 1 orthologs of five species", "experiment": "In vitro enzymatic activity, 17β-HSD 1 orthologs of five species taken together", "format": "biochemical, human, marmoset, mouse, pig, rat", "settings": "average over the 17β-HSD 1 orthologs of the species; 2 µM compound"}, "marmoset 17β-HSD 1": {"biological_target": "T2, marmoset 17β-HSD 1 (Callithrix jacchus, UniProt Q9GME2)", "T2 sequence (Q9GME2 1-314)": "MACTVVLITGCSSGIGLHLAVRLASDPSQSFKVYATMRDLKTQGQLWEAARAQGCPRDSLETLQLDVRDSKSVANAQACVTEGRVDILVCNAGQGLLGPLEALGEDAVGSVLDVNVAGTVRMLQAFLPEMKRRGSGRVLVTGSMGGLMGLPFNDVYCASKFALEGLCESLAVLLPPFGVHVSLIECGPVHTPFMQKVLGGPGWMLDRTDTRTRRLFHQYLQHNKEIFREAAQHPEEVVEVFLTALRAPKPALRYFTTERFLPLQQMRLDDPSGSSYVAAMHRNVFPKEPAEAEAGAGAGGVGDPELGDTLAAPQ", "experiment": "In vitro enzymatic activity, recombinant marmoset 17β-HSD 1", "format": "biochemical", "settings": "marmoset 17β-HSD 1; 2 µM compound; 15 nM 3H-estrone; read-out: Observed % inhibition", "text": "as §1, §2"}, "mouse 17β-HSD 1": {"biological_target": "T3, mouse 17β-HSD 1 (Mus musculus, UniProt P51656)", "T3 construct": "Full length cDNAs of several 17β-HSDs type 1 originating from different species were cloned; made in house; host or cells: E.coli BL21 DE3 Codon Plus RP", "T3 sequence (P51656 1-344)": "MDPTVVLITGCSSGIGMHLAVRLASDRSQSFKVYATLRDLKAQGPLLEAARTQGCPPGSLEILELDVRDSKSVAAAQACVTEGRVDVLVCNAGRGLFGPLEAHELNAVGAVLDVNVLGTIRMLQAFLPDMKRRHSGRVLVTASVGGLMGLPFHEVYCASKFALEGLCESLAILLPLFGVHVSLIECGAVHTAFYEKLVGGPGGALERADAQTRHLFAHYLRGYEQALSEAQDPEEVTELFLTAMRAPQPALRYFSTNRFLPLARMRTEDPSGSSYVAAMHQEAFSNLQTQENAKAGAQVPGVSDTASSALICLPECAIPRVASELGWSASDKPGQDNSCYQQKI", "experiment": "In vitro enzymatic activity, recombinant mouse 17β-HSD 1", "format": "biochemical", "settings": "2 µM compound, 15 nM 3H-estrone, read-out: Observed % inhibition", "text": "as §1, §2"}, "porcine 17β-HSD 1": {"biological_target": "T4, porcine 17β-HSD 1 (Sus scrofa, UniProt B2X0A4)", "T4 sequence (B2X0A4 1-321)": "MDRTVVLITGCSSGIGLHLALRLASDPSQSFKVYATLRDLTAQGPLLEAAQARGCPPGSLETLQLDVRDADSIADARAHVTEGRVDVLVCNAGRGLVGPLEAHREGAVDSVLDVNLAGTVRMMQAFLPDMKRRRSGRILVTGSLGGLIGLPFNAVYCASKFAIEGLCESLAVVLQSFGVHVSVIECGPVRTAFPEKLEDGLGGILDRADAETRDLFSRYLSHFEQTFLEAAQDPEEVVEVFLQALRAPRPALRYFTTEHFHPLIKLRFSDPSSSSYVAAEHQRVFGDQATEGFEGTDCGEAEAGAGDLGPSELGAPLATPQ", "experiment": "In vitro enzymatic activity, recombinant porcine 17β-HSD 1", "format": "biochemical, pig", "settings": "read-out: Observed % inhibition", "text": "as §1, §2"}, "human 17β-HSD 1": {"biological_target": "T5, human 17β-HSD 1 (Homo sapiens, UniProt P14061)", "T5 construct": "Full length cDNAs of several 17β-HSDs type 1 originating from different species were cloned; made in house; host or cells: E.coli BL21 DE3 Codon Plus RP", "T5 sequence (P14061 1-328)": "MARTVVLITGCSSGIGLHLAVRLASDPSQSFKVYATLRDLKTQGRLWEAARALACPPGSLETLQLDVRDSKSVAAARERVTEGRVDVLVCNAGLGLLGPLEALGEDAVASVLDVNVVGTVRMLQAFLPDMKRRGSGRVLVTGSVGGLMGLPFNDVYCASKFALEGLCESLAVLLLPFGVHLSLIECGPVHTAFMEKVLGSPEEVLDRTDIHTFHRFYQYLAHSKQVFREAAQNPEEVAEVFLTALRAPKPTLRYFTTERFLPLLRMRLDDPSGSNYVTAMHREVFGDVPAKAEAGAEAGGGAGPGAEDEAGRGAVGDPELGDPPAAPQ", "experiment": "In vitro enzymatic activity, recombinant human 17β-HSD 1 (estrone reduction)", "format": "biochemical", "settings": "pH 6.6, read-out: Observed % inhibition", "text": "as §1, §2"}}, "data": [{"smiles": "C[C@]12CC[C@@H]3c4ccc(O)cc4CC[C@H]3[C@@H]1CCC2=O", "note": "[Compound 6, estrone, reference compound]", "values": [{"measurement": "inhibition at 2 µM", "setting": "rat 17β-HSD 1", "result": 79.1, "unit": "%"}, {"measurement": "Observed % inhibition, average", "setting": "[1]", "result": 95.4, "unit": "%"}, {"measurement": "inhibition at 2 µM", "setting": "marmoset 17β-HSD 1", "result": 110, "unit": "%"}, {"measurement": "inhibition at 2 µM", "setting": "mouse 17β-HSD 1", "result": 101, "unit": "%"}, {"measurement": "inhibition at 2 µM", "setting": "porcine 17β-HSD 1", "result": 86.3, "unit": "%"}, {"measurement": "inhibition at 2 µM", "setting": "human 17β-HSD 1", "result": 101, "unit": "%"}]}]}
